Test results taken from US9598441B2, “Therapeutic compounds and methods” (Wayne State University, priority 2011, dated 2017).

Target: T1, CARP-1 binding with APC-2 (Homo sapiens, UniProt Q8IX12)
T1 construct: made in house; host or cells: E. coli BL-21 (DE3)
T1 sequence (Q8IX12 951-980 limits assumed): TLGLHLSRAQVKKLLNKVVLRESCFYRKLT
Test: Fluorescence polarization assay (FPA) for inhibitors of CARP-1-APC-2 binding
Conditions: fluorescein-tagged A-epitope peptide and Gst-APC-2 (685-754)
Procedure: Although, several formats for FP are indicated in the published literature (Inglese, J., Johnson, R. L., Simeonov, A., Xia, M., Zheng, W., Austin, C. P., Auld, D. S. (2007) Nat. Chem. Biol. 3(8), 466-79), the assays using 96-well or higher density plates are often and routinely employed. Optimization of FP for HTS involves several steps including the determination of Kd values, optimization of the buffer conditions, incubation and measurement times, and determination of the DMSO tolerance of the assay. Our goal was to minimize variation and to aim for adequate signal:background without adversely effecting the sensitivity of the assay. The FP polarization values in milli-polarization (mp) were measured to determine changes in the mp (Amp=mp of bound peptide mp of free peptide), the Kd and Ki constants of the binding. A 30-mer CARP-1 peptide that contained APC-2-binding epitope (A-epitope peptide) was commercially synthesized (US Biologicals, MA), labeled with fluorescein at the N-terminus, and purified to >98% purity. Increasing concentrations of A-epitope peptide were incubated with the indicated quantities of the affinity-purified Gst-APC-2 (685-754) protein in assay buffer containing 0.01% triton-X100. Affinity-purified Gst-NEMO (221-317) was included as a negative control. The Δmp was measured by excitation at 485 nm and emission at 538 nm.
The kinetics of CARP-1 binding with APC-2 was determined, and whether this binding could be exploited to identify SMIs of CARP-1-APC-2 interaction was investigated. For this purpose, a FPA utilizing the affinity-purified Gst-APC-2 (685-754) protein and the fluorescein-tagged A-epitope peptide was developed as detailed in methods. […] The signal to background ratio of 6 underscored robustness of this assay. Since, the quality (precision) and suitability of the FPA for HTS is usually defined by the Z′ factor (25, 40), we utilized the positive and negative control mean signals (μc+ and μc−, respectively) and their standard deviations (σc+ and σc−) to calculate the Z′ factor using the equation Z′=1−[3(σc++σc−)/(μc+−μc−)]. […]

IC50 [nM] | SMILES
4100 | Cc1cc(Br)cc2c1NC(=O)/C2=C1\SC(=S)NC1=O [CFM-1, (Z)-5-(5-bromo-7-methyl-2-oxoindolin-3-ylidene)-2-thioxothiazolidin-4-one]
750 | O=C1N(Cc2ccccc2Cl)c2ccccc2C12NN=C(c1ccccc1)S2 (centres unmarked) [CFM-4, 1-(2-chlorobenzyl)-5′-phenyl-3′H-spiro[indoline-3,2′-[1,3,4]thiadiazol]-2-one]
